Measurements as given in the supplement of paper PMC11208160.

Test: recombinant barcode read abundance after kanamycin selection (control-corrected) (log10(CPM+1)); higher = more efficient recombination; sequences stand for … in AGTGCAGAGAAAATCGGCCAGTTTTCTCTGCCTGCAGTCCGCATGCCGT…AGATTTATGCAGCGGACTGCCTTTCTCCCAAAGTGATAAACCGGACAGTATCATGGACCGGTTTTCCCGGTAATCCGTATTTGCAAGGTTGGTTTCACT; site = the 11-nt target
Summary of the method: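 In a pooled screen in E. coli, targets were paired with target-binding loops of the IS621 bridge RNA. Each oligo carried a promoter, a target, a barcode and the first 104 bridge RNA bases driven by J23119, and was Gibson-cloned into a vector holding the remaining 73 bp and a T7-inducible recombinase before co-electroporation with a donor plasmid. Duplicate platings went onto chloramphenicol/ampicillin LB agar as the control or onto chloramphenicol/ampicillin/kanamycin with 0.1 mM IPTG. Recombination efficiency is the averaged, control-corrected count per million of barcodes at recombinant junctions, given as log10(CPM+1).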
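Also: IS621 recombinase and bridge RNA in Escherichia coli cells.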

| Sequence | recombinant barcode read abundance (log10) |
| --- | --- |
| CGGATCGCTTGGGTTCTAACCTGTTGCCT (site CGGATAGCTAG) | 0.079 |
| CGGATCGCTTGGGTTCTAACCTGTTGCCT (site CGGATCGCTAG) | 1.76 |
| CGGATCGCTTGGGTTCTAACCTGTTGCCT (site CGGATGGCTAG) | 0.153 |
| CGGATCGCTTGGGTTCTAACCTGTTGCCT (site CGGATTGCTAG) | 0.271 |
| CGGCATACTTGGGTTCTAACCTGTTGCCT (site CAGCATACTAG) | 0.0864 |
| CGGCATACTTGGGTTCTAACCTGTTGCCT (site CCGCATACTAG) | 0.0245 |
| CGGCATACTTGGGTTCTAACCTGTTGCCT (site CGGCATACTAG) | 0.66 |
| CGGCATACTTGGGTTCTAACCTGTTGCCT (site CTGCATACTAG) | 0 |
| CGGCCACCTTGGGTTCTAACCTGTTGCCT (site CGGCCACCTAG) | 2.02 |
| CGGCCACCTTGGGTTCTAACCTGTTGCCT (site TGGCCACCTAG) | 0.0718 |
| CGGCCTACTTGGGTTCTAACCTGTTGCTT (site CGGCCTACTAA) | 0.659 |
| CGGCCTACTTGGGTTCTAACCTGTTGCTT (site CGGCTTCCTAA) | 0.137 |
| CGGCGTCCTTGGGTTCTAACCTGTTGCCG (site CGGCGTCCTAG) | 0.498 |
| CGGCGTCCTTGGGTTCTAACCTGTTGCCG (site CGGCGTCCTCG) | 0.197 |
| CGGCTGTCTTGGGTTCTAACCTGTTGCCT (site CGGCTGTCTAG) | 1.28 |
| CGGCTGTCTTGGGTTCTAACCTGTTGCCT (site GTAGGAACTCA) | 0.0275 |
| CGGCTTCCTTGGGTTCTAACCTGTTGCTT (site CGGCCTACTAA) | 0.209 |
| CGGCTTCCTTGGGTTCTAACCTGTTGCTT (site CGGCTTCCTAA) | 0.104 |
| CGGGCCTCTTGGGTTCTAACCTGTTGCAC (site CGGGCCTCTGT) | 3.19 |
| CGGGCCTCTTGGGTTCTAACCTGTTGCAC (site CGGTCCTCTGC) | 0.209 |
| CGGGCCTCTTGGGTTCTAACCTGTTGCTC (site CGGGCCTCTAA) | 0.752 |
| CGGGCCTCTTGGGTTCTAACCTGTTGCTC (site CGGGCCTCTCA) | 0.0404 |

| Sequence | recombinant barcode read abundance (log10) |
| --- | --- |
| CGGGCCTCTTGGGTTCTAACCTGTTGCTC (site CGGGCCTCTGA) | 1.23 |
| CGGGCCTCTTGGGTTCTAACCTGTTGCTC (site CGGGCCTCTTA) | 0.0944 |
| CGGTACCCTTGGGTTCTAACCTGTTGCGG (site CAGCACCCTCC) | 0.64 |
| CGGTACCCTTGGGTTCTAACCTGTTGCGG (site CGGTACCCTCC) | 3.11 |
| CGGTCCGCTTGGGTTCTAACCTGTTGCCT (site AGATCCGCTAG) | 0.103 |
| CGGTCCGCTTGGGTTCTAACCTGTTGCCT (site CGGTCCGCTAG) | 1.52 |
| CGGTCGCCTTGGGTTCTAACCTGTTGCAT (site CGGTCGCCTAT) | 0.839 |
| CGGTCGCCTTGGGTTCTAACCTGTTGCAT (site CGGTTGCCTAC) | 0.153 |
| CGTAAATCTTGGGTTCTAACCTGTTGCCT (site CGAAAATCTAG) | 0.0185 |
| CGTAAATCTTGGGTTCTAACCTGTTGCCT (site CGCAAATCTAG) | 0.0232 |
| CGTAAATCTTGGGTTCTAACCTGTTGCCT (site CGGAAATCTAG) | 0.15 |
| CGTAAATCTTGGGTTCTAACCTGTTGCCT (site CGTAAATCTAG) | 0.146 |
| CGTACCTCTTGGGTTCTAACCTGTTGCTA (site CGTACCTCTAA) | 0.124 |
| CGTACCTCTTGGGTTCTAACCTGTTGCTA (site CGTACCTCTCA) | 0.123 |
| CGTACCTCTTGGGTTCTAACCTGTTGCTA (site CGTACCTCTGA) | 0.0598 |
| CGTACCTCTTGGGTTCTAACCTGTTGCTA (site CGTACCTCTTA) | 0.166 |
| CGTACCTCTTGGGTTCTAACCTGTTGCTT (site CGTACCTCTAA) | 0.579 |
| CGTACCTCTTGGGTTCTAACCTGTTGCTT (site CGTACCTCTCA) | 0.125 |
| CGTACCTCTTGGGTTCTAACCTGTTGCTT (site CGTACCTCTGA) | 0.406 |
| CGTACCTCTTGGGTTCTAACCTGTTGCTT (site CGTACCTCTTA) | 0.127 |
| CGTACTACTTGGGTTCTAACCTGTTGCAC (site CGTACTACTGT) | 0.0785 |
| CGTACTACTTGGGTTCTAACCTGTTGCAC (site GGTACTACTAT) | 0.128 |

| Sequence | recombinant barcode read abundance (log10) |
| --- | --- |
| CGTCAACCTTGGGTTCTAACCTGTTGCCT (site CGTCAACCTAG) | 0.0446 |
| CGTCAACCTTGGGTTCTAACCTGTTGCCT (site CGTCACCCTAG) | 0.117 |
| CGTCAACCTTGGGTTCTAACCTGTTGCCT (site CGTCAGCCTAG) | 0.177 |
| CGTCAACCTTGGGTTCTAACCTGTTGCCT (site CGTCATCCTAG) | 0.115 |
| CGTCACACTTGGGTTCTAACCTGTTGCCT (site CGACACACTAG) | 0.013 |
| CGTCACACTTGGGTTCTAACCTGTTGCCT (site CGCCACACTAG) | 0.107 |
| CGTCACACTTGGGTTCTAACCTGTTGCCT (site CGGCACACTAG) | 0.052 |
| CGTCACACTTGGGTTCTAACCTGTTGCCT (site CGTCACACTAG) | 0.013 |
| CGTCCGACTTGGGTTCTAACCTGTTGCAT (site CGTACGACTAT) | 0.0562 |
| CGTCCGACTTGGGTTCTAACCTGTTGCAT (site CGTCCGACTAT) | 0.113 |
| CGTCCGACTTGGGTTCTAACCTGTTGCAT (site CGTGCGACTAT) | 0.0838 |
| CGTCCGACTTGGGTTCTAACCTGTTGCAT (site CGTTCGACTAT) | 0 |
| CGTCGGGCTTGGGTTCTAACCTGTTGCAG (site CATCGGGCTCT) | 0.367 |
| CGTCGGGCTTGGGTTCTAACCTGTTGCAG (site CCTCGGGCTCT) | 0.107 |
| CGTCGGGCTTGGGTTCTAACCTGTTGCAG (site CGTCGGGCTCT) | 1.38 |
| CGTCGGGCTTGGGTTCTAACCTGTTGCAG (site CTTCGGGCTCT) | 0.258 |
| CGTCTACCTTGGGTTCTAACCTGTTGCCT (site AGTCTACCTAG) | 0.0669 |
| CGTCTACCTTGGGTTCTAACCTGTTGCCT (site CGTCTACCTAG) | 0.333 |
| CGTCTAGCTTGGGTTCTAACCTGTTGCCA (site CGTCTAGCTTG) | 0.0938 |
| CGTCTAGCTTGGGTTCTAACCTGTTGCCA (site CGTGGAGCTTG) | 0.0343 |
| CGTCTGCCTTGGGTTCTAACCTGTTGCCT (site AGTCTGCCTAG) | 0.0222 |
| CGTCTGCCTTGGGTTCTAACCTGTTGCCT (site CGTCTGCCTAG) | 0.0327 |
